This note sets out measurements from BindingDB's records for doi:10.1016/j.bioorg.2014.02.001 (University of Delhi, 2014).

Each structure is given as a SMILES string. pIC50: −log10 of the molar value. Where only a bound is given, the exact number is not on record here.

Assay [1] concerns the target Proto-oncogene tyrosine-protein kinase Src (c-Src). In words: The kinase reaction was initiated with the incubation of the 2.5 µL of the reaction cocktail (0.7 nM of His6-Src kinase domain in kinase buffer) with 2.5 µL of prediluted compounds (dissolved in 10% DMSO, 4X target concentration) for 10 min at room temperature. The reaction cocktail contained 200 mM HEPES (pH 7.5), 16 mM MgC.

Assay [2] addresses T1, Epidermal growth factor receptor [1-973] (Homo sapiens, UniProt P00533).
T1 construct: 1-973
Nature of the assay: EGFR, MAPK and PDK Inhibitory Acitivity Assay. Conditions: pH 7. Here is the method:
(§1) EGFR was incubated with 8 mM MOPS (pH 7.0), 0.2 mM EDTA, 10 mM MnCl2, 0.1 mg/mL poly(Glu, Tyr) 4:1. MAPK1 was incubated with 25 mM Tris (pH 7.5), 0.02 mM EGTA, 250 µM substrate peptide (MAPK1-peptide), whereas PDK1 was incubated with 50 mM Tris (pH 7.5), 100 µM […] (PDKtide). The incubation was followed by the addition of 10 mM magnesium acetate and gamma-P33-ATP to each kinase. The kinase reactions were initiated with the addition of Mg:ATP mixture and stopped after 40 min of incubation with the addition of 3% phosphoric acid solution.

The target of assay [3] is T2, 3-phosphoinositide-dependent protein kinase 1 (Homo sapiens, UniProt O15530).
T2 sequence (O15530 whole entry): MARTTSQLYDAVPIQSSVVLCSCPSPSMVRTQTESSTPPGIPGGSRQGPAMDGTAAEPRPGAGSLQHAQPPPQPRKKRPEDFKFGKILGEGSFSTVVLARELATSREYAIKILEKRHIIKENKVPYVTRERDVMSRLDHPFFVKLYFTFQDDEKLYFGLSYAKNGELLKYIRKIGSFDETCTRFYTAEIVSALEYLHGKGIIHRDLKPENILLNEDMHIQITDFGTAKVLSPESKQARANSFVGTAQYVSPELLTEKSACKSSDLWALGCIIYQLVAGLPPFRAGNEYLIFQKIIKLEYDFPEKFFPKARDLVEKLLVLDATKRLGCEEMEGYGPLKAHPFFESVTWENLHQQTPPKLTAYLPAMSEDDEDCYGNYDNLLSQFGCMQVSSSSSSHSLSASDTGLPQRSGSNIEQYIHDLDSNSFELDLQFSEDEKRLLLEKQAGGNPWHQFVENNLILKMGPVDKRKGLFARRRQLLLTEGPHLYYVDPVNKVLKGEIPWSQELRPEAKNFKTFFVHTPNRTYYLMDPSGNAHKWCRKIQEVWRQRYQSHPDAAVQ
Nature of the assay: EGFR, MAPK and PDK Inhibitory Acitivity Assay. Conditions: pH 7. Here is the method: as §1

The target in assay [4] is Mitogen-activated protein kinase 1 (Homo sapiens, UniProt P28482). In words: EGFR, MAPK and PDK Inhibitory Acitivity Assay. Conditions: pH 7. As for the experimental part: as §1
Sequence of Mitogen-activated protein kinase 1 (P28482 whole entry): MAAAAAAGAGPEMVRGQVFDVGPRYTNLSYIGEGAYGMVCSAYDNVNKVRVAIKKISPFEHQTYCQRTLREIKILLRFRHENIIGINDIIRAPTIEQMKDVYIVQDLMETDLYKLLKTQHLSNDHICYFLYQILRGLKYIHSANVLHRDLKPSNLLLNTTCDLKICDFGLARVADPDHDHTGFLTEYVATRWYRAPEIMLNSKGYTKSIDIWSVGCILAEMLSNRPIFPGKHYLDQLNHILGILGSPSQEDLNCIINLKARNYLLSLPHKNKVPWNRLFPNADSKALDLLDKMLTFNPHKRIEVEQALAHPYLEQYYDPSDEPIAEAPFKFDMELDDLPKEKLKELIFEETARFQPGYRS

T1 sequence (P00533 1-973): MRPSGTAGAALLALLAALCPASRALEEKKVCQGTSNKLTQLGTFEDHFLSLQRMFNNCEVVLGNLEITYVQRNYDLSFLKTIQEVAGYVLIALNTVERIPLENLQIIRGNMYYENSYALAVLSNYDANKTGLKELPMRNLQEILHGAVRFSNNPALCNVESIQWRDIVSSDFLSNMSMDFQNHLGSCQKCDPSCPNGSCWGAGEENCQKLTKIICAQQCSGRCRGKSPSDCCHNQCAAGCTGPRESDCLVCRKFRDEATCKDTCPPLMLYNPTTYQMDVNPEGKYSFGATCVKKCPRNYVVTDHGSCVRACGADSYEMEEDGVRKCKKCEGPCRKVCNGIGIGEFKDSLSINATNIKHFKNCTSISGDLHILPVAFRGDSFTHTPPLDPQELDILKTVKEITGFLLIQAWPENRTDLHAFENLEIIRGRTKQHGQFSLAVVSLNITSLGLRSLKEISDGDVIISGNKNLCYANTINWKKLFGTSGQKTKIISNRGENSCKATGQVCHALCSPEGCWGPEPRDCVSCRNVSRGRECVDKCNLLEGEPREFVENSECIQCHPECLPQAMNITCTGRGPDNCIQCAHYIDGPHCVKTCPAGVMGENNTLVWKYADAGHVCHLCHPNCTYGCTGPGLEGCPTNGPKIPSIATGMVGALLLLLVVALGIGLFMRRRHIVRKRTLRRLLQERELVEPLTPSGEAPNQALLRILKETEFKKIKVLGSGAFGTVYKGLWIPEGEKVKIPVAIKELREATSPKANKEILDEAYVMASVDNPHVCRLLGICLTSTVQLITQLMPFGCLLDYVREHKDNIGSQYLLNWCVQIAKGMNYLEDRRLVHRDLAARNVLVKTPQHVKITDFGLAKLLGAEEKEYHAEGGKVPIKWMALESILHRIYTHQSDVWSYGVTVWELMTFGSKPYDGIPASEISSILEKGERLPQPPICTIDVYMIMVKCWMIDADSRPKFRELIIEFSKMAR

On to `CC(C)n1cc(C(=O)c2cc(O)ccc2O)ccc1=O` [5-(2,5-Dihydroxybenzoyl)-1-isopropylpyridin-2(1H)-one (40)], for which the pIC50 (as a rule, the IC50 on a negative log10 scale, so that one unit is a factor of ten) in assay [1] was 4.58.
Still for that read-out and setting: to `CC(C)/N=C(\c1ccc(=O)n(C(C)C)c1)c1ccccc1O` [(E)-5-[(2-Hydroxyphenyl)(isopropylimino)methyl]-1-isopropylpyridin-2(1H)-one (44)] belongs 4.42.
In the case of `O=c1ccc(/C(=N\C2CCCCC2)c2ccccc2O)cn1C1CCCCC1` [(E)-1-Cyclohexyl-5-[(cyclohexylimino)(2-hydroxyphenyl)methyl]pyridin-2(1H)-one (45)], the pIC50 in assay [1] was 4.70.
`CCCCCCn1cc(C(=O)c2ccc(O)cc2O)ccc1=O` [5-(2,4-Dihydroxybenzoyl)-1-hexylpyridin-2(1H)-one (32)] showed a pIC50 in assay [1] of 4.56.
On the same count and under the same terms, to `COc1ccc(C(=O)c2ccc(=O)n(CCO)c2)c(O)c1` [5-(2-Hydroxy-4-methoxybenzoyl)-1-(2-hydroxyethyl)pyridin-2(1H)-one (38)] belongs 4.70.
In assay [1], `COc1ccc(C(=O)c2ccc(=O)n(C(C)C)c2)c(O)c1` [5-(2-Hydroxy-4-methoxybenzoyl)-1-isopropylpyridin-2(1H)-one (35)] showed a pIC50 of 4.33.
As to `COc1ccc(O)c(C(=O)c2ccc(=O)n(C3CCCCC3)c2)c1` [1-Cyclohexyl-5-(2-hydroxy-5-methoxybenzoyl)pyridin-2 (1H)-one (42)], the pIC50 in assay [1] is 4.61.
In turn, `CCCCCCn1cc(C(=O)c2cc(O)ccc2O)ccc1=O` [5-(2,5-Dihydroxybenzoyl)-1-hexylpyridin-2(1H)-one (39)] gave a pIC50 in assay [1] of 4.66.
Same read-out and setting: to `CC(C)(C)OC(=O)NCCn1cc(C(=O)c2ccc(O)cc2O)ccc1=O` [t-Butyl [2-{5-(2,4-dihydroxybenzoyl)-2-oxopyridin-1(2H)-yl}ethyl]carbamate (33)] belongs 4.24.
For the compound `O=C(c1ccc(=O)n(C2CCCCC2)c1)c1ccccc1O` [1-Cyclohexyl-5-(2-hydroxybenzoyl)pyridin-2(1H)-one (30)], the pIC50 in assay [1] is 4.60.
The compound `COc1ccc(C(=O)c2ccc(=O)n(CCNC(=O)OC(C)(C)C)c2)c(O)c1` [t-Butyl [2-{5-(2-hydroxy-4-methoxybenzoyl)-2-oxopyridin-1(2H)-yl}ethyl]carbamate (37)] had a pIC50 in assay [1] of 4.56.
As to `COc1ccc(C(=O)c2ccc(=O)n(CCN(C)C)c2)c(O)c1` [1-[2-(Dimethylamino)ethyl]-5-(2-hydroxy-4-methoxybenzoyl) pyridin-2(1H)-one (36)], the pIC50 was less than 3.52 in assay [2], less than 3.52 in assay [3], less than 3.52 in assay [4] and 4.90 in assay [1].
With `CCCCCCn1cc(C(=O)c2ccccc2O)ccc1=O` [1-Hexyl-5-(2-hydroxybenzoyl)pyridin-2(1H)-one (28)], the pIC50 in assay [1] was 4.55.
Still for that read-out and setting: with `CCCCCCn1cc(C(=O)c2ccc(OC)cc2O)ccc1=O` [1-Hexyl-5-(2-hydroxy-4-methoxybenzoyl)pyridin-2(1H)-one (34)] the figure was 4.47; with `CN(C)CCn1cc(C(=O)c2ccccc2O)ccc1=O` [1-[2-(Dimethylamino)ethyl]-5-(2-hydroxybenzoyl)pyridin-2(1H)-one (31)], 4.55; with `COc1ccc(O)c(C(=O)c2ccc(=O)n(CCNC(=O)OC(C)(C)C)c2)c1` [t-Butyl [2-{5-(2-hydroxy-5-methoxybenzoyl)-2-oxopyridin-1(2H)-yl}ethyl]carbamate (43)], 4.66.
The same measure, in the same setting: to `CCCCCCn1cc(C(=O)c2cc(OC)ccc2O)ccc1=O` [1-Hexyl-5-(2-hydroxy-5-methoxybenzoyl)pyridin-2(1H)-one (41)] belongs 4.63; to `CC(C)n1cc(C(=O)c2ccccc2O)ccc1=O` [5-(2-Hydroxybenzoyl)-1-isopropylpyridin-2(1H)-one (29)], 4.66.
